Results from patent US20240287123A1 (Victoria Link Limited, priority 2021, published 2024).
Entries after “also recorded” stand apart in the source; their conditions may differ. Read-outs that look alike come from different tables or passages of the source.

Key:
[1] = tested on: EBV (Akata/Akata); assay: EBV assay: viral DNA quantification in induced Akata cells; type: cell-based, Epstein-Barr virus; settings: for activity against EBV: cell-based assay, highest concentration tested in primary assays 50 μM; for EC50: human gammaherpesvirus 4, Akata
Description: (§1) Akata cells were obtained from Louisiana State University, Baton Rouge, LA. The HCMV strain AD169 was obtained from the American Type Culture Collection (ATCC, Manassas, VA). Akata cells latently infected with EBV were obtained from Louisiana State University, Baton Rouge, LA.
(§2) Each experiment that evaluates the antiviral activity of compounds includes both positive and negative control compounds to ensure the performance of each assay. Concurrent assessment of cytotoxicity was also performed for each study in the same cell line and with the same compound exposure.
Assays for EBV were performed by reported methods.^37 Akata cells were induced to undergo a lytic infection with 50 μg/ml of a goat anti-human IgG antibody. Experimental compounds were diluted within plates. The cells were added and incubated for 72 h. Similar plates were initiated without virus induction/addition and used for measuring cytotoxicity by the addition of CTG. For all assays, the replication of the virus was assessed by the quantification of viral DNA. For EBV, primers 5′-[…]-3′ and 5′-CAG TTC CTC GCCTTAGGTTG-3 amplified a fragment corresponding to coordinates 96802-97234 in EBV genome (AJ507799). Compound concentrations sufficient to reduce genome copy number by 50% were calculated from experimental data as well as compound cytotoxicity.

[2] = Cytotoxicity in Akata cells (CTG), concurrent with EBV assay; type: cell-based; settings: human, Akata cells (without virus induction), Table 1
Description: as §2
Assays for EBV were performed by reported methods.^37 Akata cells were induced to undergo a lytic infection with 50 μg/ml of a goat anti-human IgG antibody. Experimental compounds were diluted within plates. The cells were added and incubated for 72 h. Similar plates were initiated without virus induction/addition and used for measuring cytotoxicity by the addition of CTG. For all assays, the replication of the virus was assessed by the quantification of viral DNA. […] Compound concentrations sufficient to reduce genome copy number by 50% were calculated from experimental data as well as compound cytotoxicity.

[3] = tested on: HCMV (AD169 strain in HFF cells); assay: CPE (cytopathic effect) assay for HCMV; type: cell-based, Human Cytomegalovirus
Description: (§3) Human foreskin fibroblast (HFF) cells prepared from human foreskin tissue were obtained from the University of Alabama at Birmingham tissue procurement facility with approval from its IRB. The tissue was incubated at 4° C. for 4 h in Clinical Medium consisting of minimum essential media (MEM) with Earl's salts supplemented with 10% fetal bovine serum (FBS) (Hyclone, Inc. Logan UT), L-glutamine, fungizone, and vancomycin. Tissue was then placed in phosphate buffered saline (PBS), minced, rinsed to remove the red blood cells, and resuspended in trypsin/EDTA solution. The tissue suspension was incubated at 37° C. and gently agitated to disperse the cells, which were collected by centrifugation. Cells were resuspended in 4 ml Clinical Medium and placed in a 25 cm^2 flask and incubated at 37° C. in a humidified CO2 incubator for 24 h. The media was then replaced with fresh Clinical Medium and the cell growth was monitored daily until a confluent monolayer had formed. The HFF cells were then expanded through serial passages in standard growth medium of MEM with Earl's salts supplemented with 10% FBS, L-glutamine, penicillin, and gentamycin.
as §1, §2
Assays were performed in monolayers as described.37 Cells were seeded in 384 well plates and incubated for 24 h to allow the formation of confluent monolayers. Dilutions of test drug were prepared directly in the plates and the monolayers infected at a predetermined MOI based on virus used. After incubation, cytopathology was determined by the addition of CellTiter-Glo (CTG) reagent. […] Toxicity was measured using CTG as above.

[4] = Cytotoxicity in HFF cells (CellTiter-Glo), concurrent with HCMV assay; type: cell-based; settings: human
Description: as §3, with “gentamycin. The cells were passaged routinely and used for assays at or below passage ^10.37,38” for “gentamycin.”
as §2
Assays were performed in monolayers as described.37 Cells were seeded in 384 well plates and incubated for 24 h to allow the formation of confluent monolayers. Dilutions of test drug were prepared directly in the plates and the monolayers infected at a predetermined MOI based on virus used. After incubation, cytopathology was determined by the addition of CellTiter-Glo (CTG) reagent. Concentrations of test compound sufficient to reduce CPE by 50% (EC50) or decrease cell viability by 50% (CC50) were interpolated using standard methods in Microsoft Excel. Toxicity was measured using CTG as above.

[5] = tested on: HIVADA; assay: HIV p24 alphaLISA in infected monocyte derived macrophages; type: cell-based, Human Immunodeficiency Virus; settings: 100 μM, infected MDM, days 2-7, compared with DMSO control
Description: Primary human MDMs were cultured from peripheral blood mononuclear cells and pre-treated for 24 h with ddhC (100 μM), compound 8 (100 μM), compound 21 (100 μM), emtricitabine control (15 μM, 10 μM, 1 μM, 0.1 μM), or the drug vehicle, DMSO. MDM were then infected with HIVADA in the presence of these compounds and treated daily (with compound), while culture supernatants were collected to quantify levels of HIV p24, a viral capsid protein, on days 2-7 of infection.
Leukopaks from healthy donors were obtained from the New York Blood Center and processed by Ficoll gradient centrifugation to isolate peripheral blood mononuclear cells (PBMC). These PBMC were cultured adherently into monocyte derived macrophages (MDM), according to published protocols, on 60 mm dishes for 6 days with 10-20 ng/ml macrophage colony stimulating factor (M-CSF). MDM were pre-treated with ddhC, compound 8, compound 21, emtricitabine (Cat. No .: 10071), or DMSO vehicle at indicated concentrations for 24 hours (NIH AIDS Reagent Program, Bethesda, MD). Cells were left uninfected or infected for 24 h in the presence of one of the compounds listed above with 20 ng/mL HIVADA, a macrophage-tropic HIV strain originally derived from a person with HIV (NIH). Media was changed daily with the mentioned compounds added each time, and supernatants were collected on days 2, 3, 4, 5, 6, and 7 of infection. Each treatment condition was analyzed in duplicate plates per experiment.
Supernatant samples were analyzed for the viral capsid protein, HIV p24, by a sensitive p24 alphaLISA according to the manufacturer's protocol (Perkin-Elmer, Waltham, MA). Treatment conditions were analyzed in duplicate plates, and each supernatant was analyzed in duplicate on a 96-well alphaLISA plate. These were then fit to a sigmoid standard curve to extrapolate HIV p24 levels in pg/mL within the assay limits of detection.

[6] = tested on: Zika virus; settings: Vero cells, 1 mM; cited from earlier work
[7] = Akata/Akata, Table 1, read-out: EBV EC50
[8] = read-out: Result for compound (EC50/UM), EBV Akata/Akata, assay order Primary
[9] = Human betaherpesvirus 5, AD169 strain in HFF cells, Table 1, read-out: HCMV EC50

Row | Structure (SMILES) | activity against EBV [1] | EC50 [1, 7] [µM] | EC50 [1, 8] [µM] | EC50 ([1]; read-out: EC50 against EBV) [µM] | CC50 at 72 h [2] [µM] | EC50 ([3]; Human betaherpesvirus 5, AD169, HFF, approximate, read-out: EC50 against HCMV) [µM] | EC50 [3, 9] [µM] | CC50 [4] [µM] | EC50 ([3]; Human betaherpesvirus 5, AD169, HFF, read-out: HCMV EC50) [µM] | CC50 ([4]; HFF cells, Table 1, read-out: HCMV CC50) [µM] | levels of HIV p24 viral capsid protein [5] | antiviral activity against HCMV [3] | Zika virus proliferation [6]
1 | CC(C)C(=O)OCC1=C[C@@H](O)[C@H](n2ccc(NO)nc2=O)O1 [Compound 10, 3′-Deoxy-3′,4′-didehydro-4-N-hydroxy-5′-O-isobutyroyl-cytidine] | slightly diminishes the activity | 29.9 | 29.9 | 7.6 to 38.7 | > 50 | ~0.03 | 0.03 | > 50 |  |  |  |  | 
2 | Nc1nc(O)c2ncn(COC(CO)CO)c2n1 [Ganciclovir, ganciclovir, reference compound] |  |  |  |  |  |  |  |  | 0.55 | > 150 |  |  | 
3 | Nc1ccn([C@@H]2OC(CO)=C[C@H]2O)c(=O)n1 [ddhC, 3′-Deoxy-3′,4′-didehydro-cytidine, reference compound] | five-fold less active than compound 8; also recorded: only weakly inhibited | 38.7 | 38.7 | 7.6 to 38.7 | > 50 |  | > 50 | > 50 |  |  | no reduction | does not display antiviral activity | reduce Zika virus proliferation
